Assay results taken from patent US8921595B2, “Protein Arginine Deiminase inhibitors as novel therapeutics for rheumatoid arthritis and cancer” (University of South Carolina, priority 2009, dated 2014).

Key:
[1] = test system: HL-60 cells; test: Cytotoxicity / cell viability (CellTiter 96); format: cell-based, human; details: 24 h
Source text: To further evaluate the […] effects of these compounds, their ability to inhibit the growth of HL60 cells, a leukemic cell line, was characterized. […] Such finding prompted further investigation into this phenomenon and led to the discovery that for the HL-60 cell line, the cells that remained viable were actually being differentiated into non-cancerous granulocytes. Evidence of this differentiation includes the increased expression of PAD4 (FIG. 6).
HL-60 human promyelocytic leukemia cells were obtained from the ATCC (Manassas, Va.). The cells were cultured in RPMI 1640 media supplemented with 10% FBS and 1% Pencillin-Streptomycin, in a 5% CO2 incubator at 37° C. MCF-7 cells were cultured in DMEM media supplemented with 10% FBS and 1% Penicillin-Streptomycin, in a 5% CO2 incubator at 37° C.
HL-60 and MCF-7 cells were grown to confluence (1×10^6 cells/mL) in the appropriate media. […] Cell viability was determined using the CellTiter 96 Non-radioactive Cell Proliferation Assay (Promega). Cell viability was quantified as the percentage of control absorbance. […] When possible, EC50 values were determined by fitting the dose response data to equation 2 using GraFit (version 5.0.11)^33, Fractional Activity=1/(1+([1]/EC50) (eq 2) where [I] is the concentration of inhibitor (e.g., doxorubicin) and EC50 is the concentration of inhibitor that yields half-maximal cell survival. Western Blotting.

[2] = test system: HL-60 cells; test: Combination with doxorubicin, HL-60 cell viability; format: cell-based, human; details: for effects of doxorubicin in combination: HL-60 cells, combination with doxorubicin; for viability of cancer cells in combination with doxorubicin: in conjunction with doxorubicin
Procedure: Although o-F- and o-Cl-amidine show some efficacy for killing cancer derived cells, the overall effects are modest. In light of such results, these inhibitors were tested in a combination with doxorubicin, a known chemotherapeutic that is used for the treatment of numerous cancers, often as part of a combination therapy. In accordance with the present disclosure, the additive effects of doxorubicin was tested with varying concentrations of both o-F- and o-Cl-amidine on HL-60 cell viability.
HL-60 and MCF-7 cells were grown to confluence (1×10^6 cells/mL) in the appropriate media. 50 μL of the MCF-7 cells were plated into each well of a 96 well plate with 40 μL of DMEM. Cells were allowed to adhere to the plate for 15 h at 37° C. and 5% CO2. For the HL-60 cells, 90 μL of the cells were added to each well of a 96 well plate. o-F-amidine, o-Cl-amidine, doxorubicin, or ATRA (10 μL, 100 nM to 100 μM) were added to the plates and allowed to incubate with the cells for 24 h. Cell viability was determined using the CellTiter 96 Non-radioactive Cell Proliferation Assay (Promega). Cell viability was quantified as the percentage of control absorbance. Each condition was performed in triplicate. The use of 1% triton served as a 100% killing control. When possible, EC50 values were determined by fitting the dose response data to equation 2 using GraFit (version 5.0.11)^33, Fractional Activity=1/(1+([1]/EC50) (eq 2) where [I] is the concentration of inhibitor (e.g., doxorubicin) and EC50 is the concentration of inhibitor that yields half-maximal cell survival. Western Blotting.

Row | Structure (SMILES) | cell viability in HL-60 cells [1] | effects of doxorubicin in combination [2] | viability of cancer cells in combination with doxorubicin [2]
1 | N=C(CF)NCCC[C@H](NC(=O)c1ccccc1C(=O)O)C(N)=O [o-F-amidine, N-α-(2-carboxyl)benzoyl-N^5-(2-fluoro-1-iminoethyl)-L-ornithine amide] | reduce cell viability | potentiated | reduced to levels that are undetectable above the background signal
2 | N=C(CCl)NCCC[C@H](NC(=O)c1ccccc1C(=O)O)C(N)=O [o-Cl-amidine, N-α-(2-carboxyl)benzoyl-N^5-(2-chloro-1-iminoethyl)-L-ornithine amide] | reduce cell viability | potentiated | reduced to levels that are undetectable above the background signal
